# Experimental data published in patent US20040034071A1, “Thioaryl sulfonamide hydroxamic acid compounds” (priority 1999, published 2004).
# Where a name gives a salt, the structure may show the parent alone.
# Tests used:
# recombinant human MMP-1 = target: T1, recombinant human MMP-1 (Homo sapiens, UniProt P03956); experiment: In vitro metalloprotease inhibition, fluorogenic MCA peptide substrate; format: biochemical; conditions: recombinant human MMP-1, APMA activated; room temperature; substrate 4 μM; 1 percent DMSO
# T1 construct: made in house; host or cells: transfected HT-1080 cells (provided by Dr. Howard Welgus, Washington University)
# T1 sequence (P03956 100-469): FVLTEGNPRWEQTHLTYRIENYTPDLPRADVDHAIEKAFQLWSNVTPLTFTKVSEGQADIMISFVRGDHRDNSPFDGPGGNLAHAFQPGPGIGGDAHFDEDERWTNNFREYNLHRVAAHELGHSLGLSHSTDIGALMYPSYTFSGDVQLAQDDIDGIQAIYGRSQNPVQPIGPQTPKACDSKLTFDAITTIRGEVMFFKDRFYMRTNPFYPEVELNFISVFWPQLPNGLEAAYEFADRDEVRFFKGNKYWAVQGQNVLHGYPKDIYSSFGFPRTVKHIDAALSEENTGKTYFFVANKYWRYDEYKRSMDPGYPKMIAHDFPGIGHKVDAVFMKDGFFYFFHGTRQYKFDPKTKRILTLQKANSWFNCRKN
# Protocol: (§1) Several of the compounds prepared in the manner described in the previous Examples were assayed for activity by an in vitro assay. Following the procedures of Knight et al., FEBS Lett. 296(3):263 (1992). Briefly, 4-aminophenylmercuric acetate (APMA) or trypsin activated MMPs were incubated with various concentrations of the inhibitor compound at room temperature for 5 minutes.
# (§2) More specifically, recombinant human MMP-13 and MMP-1 enzymes were prepared in laboratories of the assignee. MMP-13 was expressed in baculovirus as a proenzyme, and purified first over a heparin agarose column and then over a chelating zinc chloride column. The proenzyme was activated by APMA for use in the assay. MMP-1 expressed in transfected HT-1080 cells was provided by Dr. Howard Welgus of Washington University, St. Louis, Mo. The enzyme was also activated using APMA and was then purified over a hydroxamic acid column.
# (§3) The enzyme substrate is a methoxycoumarin-containing polypeptide having the following sequence:
# (§4) MCA-ProLeuGlyLeuDpaAlaArgNH^2, wherein MCA is methoxycoumarin and Dpa is 3-(2,4-dinitrophenyl)-L-2,3-diaminopropionyl alanine. This substrate is commercially available from Baychem as product M-1895.
# (§5) The buffer used for assays contained 100 mM Tris-HCl, 100 mM NaCl, 10 mM CaCl2 and 0.05 percent polyethyleneglycol (23) lauryl ether at a pH value of 7.5. Assays were carried out at room temperature, and dimethyl sulfoxide (DMSO) at a final concentration of 1 percent was used to dissolve inhibitor compound.
# (§6) The assayed inhibitor compound in DMSO/buffer solution was compared to an equal amount of DMSO/buffer with no inhibitor as control using Microfluor™ White Plates (Dynatech). The inhibitor or control solution was maintained in the plate for 10 minutes and the substrate was added to provide a final concentration of 4 μM.
# (§7) In the absence of inhibitor activity, a fluorogenic peptide was cleaved at the gly-leu peptide bond, separating the highly fluorogenic peptide from a 2,4-dinitrophenyl quencher, resulting in an increase of fluorescence intensity (excitation at 328 nm/emission at 415 nm). Inhibition was measured as a reduction in fluorescent intensity as a function of inhibitor concentration, using a Perkin Elmer L550 plate reader. The IC50 values were calculated from those values. The results are set forth in the Inhibition Table below, reported in terms of IC50.
# recombinant human MMP-13 = target: T2, recombinant human MMP-13 (Homo sapiens, UniProt P45452); experiment: as above; format: biochemical; conditions: recombinant human MMP-13, APMA activated; room temperature; substrate 4 μM; 1 percent DMSO
# T2 construct: made in house
# Protocol: as §1, §2, §3, §4, §5, §6, §7
# [1] = tested on: solid tumor cancers (colorectal, pancreatic, ovarian, prostate); conditions: cited from earlier work
IC50 (recombinant human MMP-1),IC50 (recombinant human MMP-13),Structure (SMILES),"rise of cancer-specific antigens used as surrogate markers for biological activity ([1]; Phase I/II, patients with advanced, treatment-refractory solid tumor cancers)","most common drug-related toxicity ([1]; clinical trials, patients)"
1500 nM,1.9 nM,"Cc1cccc(Sc2ccc(S(=O)(=O)N(CCN3CCOCC3)[C@@H](C(=O)NO)C(C)C)cc2)c1 [Example 1g, N-hydroxy-3-methyl-2R-[[[4-[(3-methylphenyl)thio]phenyl]sulfonyl]-[2-(4-morpholinyl)-ethyl]amino]-butanamide, Monohydrochloride]",,
2000 nM,0.5 nM,"Cc1ccc(Sc2ccc(S(=O)(=O)N(CCN3CCOCC3)[C@@H](C(=O)NO)C(C)C)cc2)cc1 [Example 2e, N-hydroxy-3-methyl-2R-[[[4-[(4-methylphenyl)-thio]phenyl]sulfonyl][2-(4-morpholinyl)ethyl]-amino]-butanamide, Monohydrochloride]",,
1800 nM,0.5 nM,"C[C@H](C(=O)NO)N(CCN1CCOCC1)S(=O)(=O)c1ccc(Sc2ccccc2)cc1 [Example 3g, N-hydroxy-2R-[[2-(4-morpholinyl)ethyl][[4-(phenylthio)phenyl]sulfonyl]amino]propanamide]",,
> 10000 nM,0.1 nM,"Cc1ccc(Sc2ccc(S(=O)(=O)N(CCN3CCOCC3)[C@H](C)C(=O)NO)cc2)cc1 [Example 4f, N-hydroxy-2R-[[2-(4-morpholinyl)ethyl][[4-[(4-methylphenyl)thio]phenyl]sulfonyl]-amino]-propanamide, Monohydrochloride]",,
> 10000 nM,1.6 nM,"O=C(CN(CCN1CCOCC1)S(=O)(=O)c1ccc(SC2CCCCC2)cc1)NO [Example 5f, [[[4-(Cyclohexylthio)phenyl]sulphonyl][2-(4-morpholinyl)ethyl]amino]-N-hydroxyacetamide]",,
4000 nM,0.1 nM,"O=C(CN(CCN1CCOCC1)S(=O)(=O)c1ccc(Sc2ccccc2)cc1)NO [Example 6e, 2-[[[4-(phenylthio)phenyl]sulphonyl][2-(4-morpholinyl)ethyl]amino]-N-hydroxyacetamide, Hydrochloride]",,
560 nM,0.3 nM,"CC(C)[C@H](C(=O)NO)N(CCN1CCOCC1)S(=O)(=O)c1ccc(Sc2ccccc2)cc1 [Example 7f, N-hydroxy-3-methyl-2R-[[(4-phenylthio)-phenyl]-sulfonyl]-[2-(4-morpholinyl)-ethyl]amino]-butanamide, Monohydrochloride]",,
500 nM,1 nM,"CC(C)[C@H](C(=O)NO)N(CCN1CCCCC1)S(=O)(=O)c1ccc(Sc2ccccc2)cc1 [Example 8d, N-hydroxy-3-methyl-2R-[[(4-phenylthio)-phenyl]-sulfonyl]-[2-(1-piperidinyl)-ethyl]amino]-butanamide, Monohydrochloride]",,
,,CNC(=O)[C@@H](NC(=O)[C@H](CC(C)C)[C@H](O)C(=O)NO)C(C)(C)C [marimastat],dose-related reduction,musculoskeletal pain and stiffness
